Measured values as given in US12077503B2, “Substituted cyclic amides and their use as herbicides” (FMC CORPORATION, priority 2015, dated 2024).

Tests used:
Type in all cases: in vivo
corn (Zea mays) [1] = experiment: Test G Post-Emergence Protocol; details: Zea mays, post-emergence, 312 h
Summary of the method: (§1)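 Pot-grown seedlings, 8 days old, raised in a glasshouse at 24/16 °C day/night with 14 h light and 65% humidity, were sprayed post-emergence with test compound in acetone/water (50:50) plus 0.5% Tween 20 at 15.625, 62.5 or 250 g/ha. Damage was scored visually 13 days later on a 0–100 scale (100 = total damage).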

[2] = test system: barnyardgrass (Echinochloa crus-galli); experiment: Test G Post-Emergence Protocol; details: Echinochloa crus-galli, post-emergence, 312 h
Summary of the method: as §1

[3] = test system: giant foxtail (Setaria faberi); experiment: Test G Post-Emergence Protocol; details: Setaria faberi, post-emergence, 312 h
Summary of the method: as §1

[4] = test system: ivy-leaved morning glory (Ipomoea hederacea); experiment: Test G Post-Emergence Protocol; details: Ipomoea, post-emergence, 312 h
Summary of the method: as §1

[5] = test system: velvetleaf (Abutilon theophrasti); experiment: Test G Post-Emergence Protocol; details: Abutilon theophrasti, post-emergence, 312 h
Summary of the method: as §1

[6] = test system: redroot pigweed (Amaranthus retroflexus); experiment: Test G Post-Emergence Protocol; details: Amaranthus retroflexus, post-emergence, 312 h
Summary of the method: as §1

corn (Zea mays) [7] = experiment: Test G Pre-Emergence Protocol; details: Zea mays, pre-emergence, 312 h, evaluated after 13 days
Summary of the method: (§2)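 Seeds were sown in standard soil and kept one day in a glasshouse (24/16° C day/night, 14 h light, 65% humidity), then sprayed with compound in acetone/water (50:50) containing 0.5% Tween 20 at 15.625, 62.5 or 250 g/ha. Damage was scored after 13 days (0 = none, 100 = total).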

[8] = test system: barnyardgrass (Echinochloa crus-galli); experiment: Test G Pre-Emergence Protocol; details: Echinochloa crus-galli, pre-emergence, 312 h, evaluated after 13 days
Summary of the method: as §2

[9] = test system: giant foxtail (Setaria faberi); experiment: Test G Pre-Emergence Protocol; details: Setaria faberi, pre-emergence, 312 h, evaluated after 13 days
Summary of the method: as §2

[10] = test system: ivy-leaved morning glory (Ipomoea hederacea); experiment: Test G Pre-Emergence Protocol; details: Ipomoea, pre-emergence, 312 h, evaluated after 13 days
Summary of the method: as §2

[11] = test system: velvetleaf (Abutilon theophrasti); experiment: Test G Pre-Emergence Protocol; details: Abutilon theophrasti, pre-emergence, 312 h, evaluated after 13 days
Summary of the method: as §2

[12] = test system: redroot pigweed (Amaranthus retroflexus); experiment: Test G Pre-Emergence Protocol; details: Amaranthus retroflexus, pre-emergence, 312 h, evaluated after 13 days
Summary of the method: as §2

Question: `CN1C[C@@H](c2cc(Cl)cc(C(F)(F)F)c2)[C@H](C(=O)Nc2ccccc2F)C1=O` (racemic) [Compound 1414] was tested. Which plant injury at 15.625 g/ha (corn (Zea mays) [1]; 15.625 g ai/ha, evaluated after 13 days (100=total damage to plant; 0=no damage to plant), read-out: Corn damage rating) did it give?
Answer: The plant injury at 15.625 g/ha was 20%.

Question: What about the plant injury at 62.5 g/ha (corn (Zea mays) [1]; 62.5 g ai/ha, evaluated after 13 days, read-out: Corn damage rating (100=total damage to plant; 0=no damage to plant)) of the same compound?
Answer: Its plant injury at 62.5 g/ha is 50%.

Question: And the plant injury at 250 g/ha (corn (Zea mays) [1]; 250 g ai/ha, evaluated after 13 days, read-out: damage to plant, Corn (100=total damage to plant; 0=no damage to plant))?
Answer: The plant injury at 250 g/ha was 80%.

Question: What about the pest or weed control at 15.625 g/ha ([2]; 15.625 g ai/ha, evaluated after 13 days (100=total damage to plant; 0=no damage to plant), read-out: Barnyardgrass damage rating) of the same compound?
Answer: Its pest or weed control at 15.625 g/ha is 50%.

Question: What about the pest or weed control at 62.5 g/ha ([2]; 62.5 g ai/ha, evaluated after 13 days, read-out: Barnyardgrass damage rating (100=total damage to plant; 0=no damage to plant)) of the same compound?
Answer: The pest or weed control at 62.5 g/ha was 50%.

Question: What about the pest or weed control at 250 g/ha ([2]; 250 g ai/ha, evaluated after 13 days, read-out: damage to plant, Barnyardgrass (100=total damage to plant; 0=no damage to plant)) of the same compound?
Answer: Its pest or weed control at 250 g/ha is 60%.

Question: What about the pest or weed control at 15.625 g/ha ([3]; 15.625 g ai/ha, evaluated after 13 days (100=total damage to plant; 0=no damage to plant), read-out: Foxtail, Giant damage rating) of the same compound?
Answer: Its pest or weed control at 15.625 g/ha is 70%.

Question: And the pest or weed control at 62.5 g/ha ([3]; 62.5 g ai/ha, evaluated after 13 days, read-out: Foxtail, Giant damage rating (100=total damage to plant; 0=no damage to plant))?
Answer: The pest or weed control at 62.5 g/ha was 70%.

Question: And the pest or weed control at 250 g/ha ([3]; 250 g ai/ha, evaluated after 13 days, read-out: damage to plant, Foxtail, Giant (100=total damage to plant; 0=no damage to plant))?
Answer: The pest or weed control at 250 g/ha was 80%.

Question: What about the pest or weed control at 15.625 g/ha ([4]; 15.625 g ai/ha, evaluated after 13 days (100=total damage to plant; 0=no damage to plant), read-out: Morningglory, Ivy-leaved damage rating) of the same compound?
Answer: The pest or weed control at 15.625 g/ha was 0%.

Question: And the pest or weed control at 62.5 g/ha ([4]; 62.5 g ai/ha, evaluated after 13 days, read-out: Morningglory, Ivy-leaved damage rating (100=total damage to plant; 0=no damage to plant))?
Answer: The pest or weed control at 62.5 g/ha was 30%.

Question: What about the pest or weed control at 250 g/ha ([4]; 250 g ai/ha, evaluated after 13 days, read-out: damage to plant, Morningglory, Ivy-leaved (100=total damage to plant; 0=no damage to plant)) of the same compound?
Answer: Its pest or weed control at 250 g/ha is 30%.

Question: And the pest or weed control at 15.625 g/ha ([5]; 15.625 g ai/ha, evaluated after 13 days (100=total damage to plant; 0=no damage to plant), read-out: Velvetleaf damage rating)?
Answer: The pest or weed control at 15.625 g/ha was 0%.

Question: And the pest or weed control at 62.5 g/ha ([5]; 62.5 g ai/ha, evaluated after 13 days, read-out: Velvetleaf damage rating (100=total damage to plant; 0=no damage to plant))?
Answer: The pest or weed control at 62.5 g/ha was 0%.

Question: What about the pest or weed control at 250 g/ha ([5]; 250 g ai/ha, evaluated after 13 days, read-out: damage to plant, Velvetleaf (100=total damage to plant; 0=no damage to plant)) of the same compound?
Answer: Its pest or weed control at 250 g/ha is 0%.

Question: What about the pest or weed control at 15.625 g/ha ([6]; 15.625 g ai/ha, evaluated after 13 days (100=total damage to plant; 0=no damage to plant), read-out: Pigweed, Redroot damage rating) of the same compound?
Answer: The pest or weed control at 15.625 g/ha was 10%.

Question: What about the pest or weed control at 62.5 g/ha ([6]; 62.5 g ai/ha, evaluated after 13 days, read-out: Pigweed, Redroot damage rating (100=total damage to plant; 0=no damage to plant)) of the same compound?
Answer: Its pest or weed control at 62.5 g/ha is 0%.

Question: What about the pest or weed control at 250 g/ha ([6]; 250 g ai/ha, evaluated after 13 days, read-out: damage to plant, Pigweed, Redroot (100=total damage to plant; 0=no damage to plant)) of the same compound?
Answer: Its pest or weed control at 250 g/ha is 30%.

Question: And the plant injury at 15.625 g/ha (corn (Zea mays) [7]; 15.625 g ai/ha, read-out: Corn damage rating (100=total damage to plant; 0=no damage to plant))?
Answer: Its plant injury at 15.625 g/ha is 0%.

Question: And the plant injury at 62.5 g/ha (corn (Zea mays) [7]; 62.5 g ai/ha, 100=total damage to plant, 0=no damage to plant, read-out: plant damage rating, Corn)?
Answer: The plant injury at 62.5 g/ha was 20%.

Question: What about the plant injury at 250 g/ha (corn (Zea mays) [7]; 250 g ai/ha, read-out: Corn damage rating (100=total damage to plant; 0=no damage to plant)) of the same compound?
Answer: The plant injury at 250 g/ha was 50%.

Question: What about the pest or weed control at 15.625 g/ha ([8]; 15.625 g ai/ha, read-out: Barnyard grass damage rating (100=total damage to plant; 0=no damage to plant)) of the same compound?
Answer: The pest or weed control at 15.625 g/ha was 20%.

Question: And the pest or weed control at 62.5 g/ha ([8]; 62.5 g ai/ha, 100=total damage to plant, 0=no damage to plant, read-out: plant damage rating, Barnyardgrass)?
Answer: The pest or weed control at 62.5 g/ha was 70%.

Question: And the pest or weed control at 250 g/ha ([8]; 250 g ai/ha, read-out: Barnyardgrass damage rating (100=total damage to plant; 0=no damage to plant))?
Answer: The pest or weed control at 250 g/ha was 80%.

Question: What about the pest or weed control at 15.625 g/ha ([9]; 15.625 g ai/ha, read-out: Foxtail, Giant damage rating (100=total damage to plant; 0=no damage to plant)) of the same compound?
Answer: Its pest or weed control at 15.625 g/ha is 60%.

Question: And the pest or weed control at 62.5 g/ha ([9]; 62.5 g ai/ha, 100=total damage to plant, 0=no damage to plant, read-out: plant damage rating, Foxtail, Giant)?
Answer: The pest or weed control at 62.5 g/ha was 80%.

Question: And the pest or weed control at 250 g/ha ([9]; 250 g ai/ha, read-out: Foxtail, Giant damage rating (100=total damage to plant; 0=no damage to plant))?
Answer: The pest or weed control at 250 g/ha was 80%.

Question: What about the pest or weed control at 15.625 g/ha ([10]; 15.625 g ai/ha, read-out: Morning-glory, Ivy-leaved damage rating (100=total damage to plant; 0=no damage to plant)) of the same compound?
Answer: The pest or weed control at 15.625 g/ha was 0%.

Question: And the pest or weed control at 62.5 g/ha ([10]; 62.5 g ai/ha, 100=total damage to plant, 0=no damage to plant, read-out: plant damage rating, Morningglory, Ivy-leaved)?
Answer: Its pest or weed control at 62.5 g/ha is 0%.

Question: And the pest or weed control at 250 g/ha ([10]; 250 g ai/ha, read-out: Morningglory, Ivy-leaved damage rating (100=total damage to plant; 0=no damage to plant))?
Answer: Its pest or weed control at 250 g/ha is 20%.

Question: What about the pest or weed control at 15.625 g/ha ([11]; 15.625 g ai/ha, read-out: Velvetleaf damage rating (100=total damage to plant; 0=no damage to plant)) of the same compound?
Answer: The pest or weed control at 15.625 g/ha was 0%.

Question: And the pest or weed control at 62.5 g/ha ([11]; 62.5 g ai/ha, 100=total damage to plant, 0=no damage to plant, read-out: plant damage rating, Velvetleaf)?
Answer: The pest or weed control at 62.5 g/ha was 0%.

Question: And the pest or weed control at 250 g/ha ([11]; 250 g ai/ha, read-out: Velvetleaf damage rating (100=total damage to plant; 0=no damage to plant))?
Answer: The pest or weed control at 250 g/ha was 0%.

Question: What about the pest or weed control at 15.625 g/ha ([12]; 15.625 g ai/ha, read-out: Pigweed, Redroot damage rating (100=total damage to plant; 0=no damage to plant)) of the same compound?
Answer: Its pest or weed control at 15.625 g/ha is 0%.

Question: And the pest or weed control at 62.5 g/ha ([12]; 62.5 g ai/ha, 100=total damage to plant, 0=no damage to plant, read-out: plant damage rating, Pigweed, Redroot)?
Answer: Its pest or weed control at 62.5 g/ha is 0%.

Question: What about the pest or weed control at 250 g/ha ([12]; 250 g ai/ha, read-out: Pigweed, Redroot damage rating (100=total damage to plant; 0=no damage to plant)) of the same compound?
Answer: Its pest or weed control at 250 g/ha is 0%.
